Two compounds from patent US10610562B2, “Instant water soluble bioactive dietary phytonutrients composition of spice/herb extracts and a process for its preparation” (AKAY FLAVOURS & AROMATICS PVT. LTD, priority 2014, dated 2020) can be followed below.

One assay in a line: DPPH assay. In kind it is biochemical. The procedure:
Briefly, various concentrations of the extract were added to 1 mL of freshly prepared DPPH solution in methanol. The reaction mixture was made up to 2 mL with methanol; incubated for 20 minutes; read at 515 nm against methanol as reference. The percentage inhibition was calculated and concentration needed for 50% inhibition was found out. […] Mix well and this was given to five volunteer for sensory evaluation. The sample was first de-oiled and its antioxidant level was check using DPPH, ABTS, & SOD method comparing with plain potato chips.
In general terms: Loss of DPPH colour is used to gauge radical scavenging.

Another assay has as its system rat liver homogenate. The experiment in a line: Lipid peroxidation assay. The format is biochemical. The procedure: The level of lipid peroxidation was measured by the method of Ohkawa et al (1979). Briefly, 1 mg/mL spice extract stock solution was prepared in distilled water. Various concentrations (1-10 μg/mL) of extract were incubated with 0.1 mL rat liver homogenate (25%) containing 30 mM KCl, Tris-HCl buffer (0.04 M, pH 7.0), ascorbic acid (0.06 mM) and ferrous ion (0.16 mM) in a total volume 0.5 mL for 1 hr. After incubation, 0.4 mL of reaction mixture was treated with 0.2 mL SDS (8.1%), 1.5 mL TBA (0.8%) and 1.5 mL acetic acid (20%, pH 3.5) distilled water were kept for 1 hr in a boiling water bath at 100° C. […] Absorbance of the clear supernatant was measured at 532 nm against pyridine:butanol. Percent inhibition of lipid peroxidation was calculated using the equation: […]

Assay [1] can be described thus: Superoxide radical anion scavenging activity. The format is biochemical. The procedure:
McCord and Fridovich, (1969), measure super oxide radical anion scavenging activity. Briefly, 1 mg/mL spice extract stock solution was prepared in distilled water. The reaction mixture contained 200 μL KCN [dissolved in EDTA (6 mM)], 50 μL riboflavin (0.12 mM), 100 μL NBT (1.5 mM) and various concentrations (1-10 μg/mL) of the extract and add Phosphate buffer made up to 3 mL. The tubes containing the reaction mixture were uniformly illuminated with an incandescent lamp for 15 minutes. The absorbance was measured at 530 nm before and after the illumination. Percent inhibition of superoxide radical was calculated using the equation: […] Mix well and this was given to five volunteer for sensory evaluation. The sample was first de-oiled and its antioxidant level was check using DPPH, ABTS, & SOD method comparing with plain potato chips.

A further assay in a line: ABTS assay. In kind it is biochemical. The procedure: Keep ABTS solution at Room temperature for 16 hours, and then store it at 4° C. (if not use). Take 500 μL, ABTS solution and add 50 mL PBS; adjust the OD to 0.7-0.8 against PBS as reference at 734 nm. Take 1 mL ABTS solution with different varies concentration of the extracts (1 mg/mL spice extract stock solution was prepared in distilled water) and made up to 2 mL with PBS. Keep the sample at room temperature for 6 minutes. The absorbance was measured at 734 nm. The results were calculated from the slopes of reaction curves obtained by plotting the absorbance Vs time. […] Mix well and this was given to five volunteer for sensory evaluation. The sample was first de-oiled and its antioxidant level was check using DPPH, ABTS, & SOD method comparing with plain potato chips.

Assay [2] in a line: Hydroxyl radical scavenging activity. The format is biochemical. The procedure: Hydroxyl radical scavenging activity of the extract was measured by following the method of Elizabeth and Rao, (1990). Briefly, 1 mg/mL spice extract stock solution was prepared in distilled water and mixed with the reaction mixture containing deoxyribose (2.8 mM), ferric chloride (0.1 mM) EDTA (0.1 mM), H2O2 (1 mM), ascorbate (0.1 mM), and KH2PO4—KOH (20 mM, pH 7.4) at various concentrations (1-10 μg/mL) to a total volume of 1 mL and incubated for 1 hr at 37° C. Absorbance of each solution was measured at 530 nm using a UV/VIS spectrophotometer against the distilled water as reference. From the absorbance of the control and test solution, percentage inhibition was calculated.

Assay [3] relates to carrageenan induced paw oedema. The assay can be described thus: In vivo anti-inflammatory potential, carrageenan induced paw oedema model. Also noted: species or system Swiss albino mice. As to conditions: reference drug at dose 50 mg/kg body weight. The procedure:
The animals for experimental model were taken from small breeding station of Amala Cancer Research Centre, Thrissur (Registration No. 149/99/CPCSEA) and […] Institute of Medical Science, Kochi (Registration No. 527/02/a/CPCSEA). The animals were kept in air-conditioned room at 22±2° C. and relative humidity […] with 12 hours day and light cycle, fed with normal mouse chow, a natural ingredient diet (Sai Feeds, India) and water ad libitum. All animal experiments were performed according to the rules and regulations of the Committee for the Purpose of Control and Supervision of Experiments on Animals (CPCSEA), Government of India. Five groups each contained six Male Swiss albino mice (25-30 g) in each group were injected with 25 μL of 1% suspension of carrageenan in 0.1% carboxy methylcellulose (CMC) sub-planetary into right hind paw. Paw volume was measured at various time intervals such as, paw volume before inflammation induction, then for 1, 2, 3, 4, 5 and 24 hours after carrageenan administration using a vernier calliper. Clove extract at doses 25, 50 and 100 mg/kg body weight was administered (orally) 1 hour prior to carrageenan injection. […] The percentages of inhibition were calculated according to the following formula. […] Where, VT-Paw oedema at various time intervals and Vo-Initial paw oedema [table]

Converted amounts (≈) assume the structure as drawn.

In the case of `O=C1O[C@H]([C@@H](O)CO)C(O)=C1O` [Vitamin C], the “IC50, DPPH” value in the assay “DPPH assay” worked out at 14 µg/mL (≈ 79.5 µM). The “IC50, lipid peroxidation” value in the assay on rat liver homogenate turned out to be 375 µg/mL (≈ 2130 µM). Also, the “IC50, superoxide radical anion scavenging” value in assay [1] worked out at 1900 µg/mL (≈ 10800 µM). The “IC50, ABTS” value in “ABTS assay” was found to be 2.25 µg/mL (≈ 12.8 µM). Further, the “IC50, hydroxyl radical scavenging” value in assay [2] is 1550 µg/mL (≈ 8800 µM).

In the case of `O=C(O)Cc1ccccc1Nc1c(Cl)cccc1Cl` [diclofenac, Diclofenac], in assay [3], the “inhibition of paw oedema” value is on record as 56.70%.
